Data published in BindingDB's records for doi:10.1002/cbic.201500446 (Hans Knöll Institute, 2015).

Target: T1, Polyunsaturated fatty acid 5-lipoxygenase (Homo sapiens, UniProt P09917)
T1 sequence (P09917 whole entry): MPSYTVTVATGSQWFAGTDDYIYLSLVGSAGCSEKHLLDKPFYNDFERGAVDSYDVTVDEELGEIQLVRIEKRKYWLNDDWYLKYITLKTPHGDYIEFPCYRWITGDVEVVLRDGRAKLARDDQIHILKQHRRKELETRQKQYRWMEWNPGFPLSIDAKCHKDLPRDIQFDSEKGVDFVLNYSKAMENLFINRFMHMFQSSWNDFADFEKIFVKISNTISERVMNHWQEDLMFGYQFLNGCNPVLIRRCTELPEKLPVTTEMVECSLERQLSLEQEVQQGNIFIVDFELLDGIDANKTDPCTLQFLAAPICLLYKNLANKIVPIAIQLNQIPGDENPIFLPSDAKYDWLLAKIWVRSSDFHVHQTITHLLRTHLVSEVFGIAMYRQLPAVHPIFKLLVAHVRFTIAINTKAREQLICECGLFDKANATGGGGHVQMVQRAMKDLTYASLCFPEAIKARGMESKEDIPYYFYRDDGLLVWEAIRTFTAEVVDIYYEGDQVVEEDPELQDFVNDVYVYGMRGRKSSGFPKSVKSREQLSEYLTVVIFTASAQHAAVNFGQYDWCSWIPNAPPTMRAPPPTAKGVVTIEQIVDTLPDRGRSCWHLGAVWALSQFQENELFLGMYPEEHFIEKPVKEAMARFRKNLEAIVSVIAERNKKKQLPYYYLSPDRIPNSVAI
Assay: 5-LO Activity Assay
Experimental: Purified 5-LO was diluted in PBS containing EDTA (1 mM) and freshly added ATP (1 mM) and incubated with the myxochelin test substances for 10 min at 4°C, followed by 30 s at 37°C. Addition of CaCl2 (2 mM) and arachidonic acid (20 µM) initiatedthe 5-LO product formation. After 10 min, the reaction was terminated by adding ice-old MeOH (1 mL), and the production of 5-LO metabolites was analyzed by RP-HPLC.

| SMILES | IC50 [µM] |
| --- | --- |
| O=C(NCCCC[C@@H](CO)NC(=O)c1cccc(O)c1O)c1cccc(O)c1O [Myxochelin A] | 1.72 |
| O=C(NCCCC[C@@H](CO)NC(=O)c1cccc(O)c1O)c1ccccc1 [Myxochelin J1] | 3.15 |
| O=C(N[C@H](CO)CCCCNC(=O)c1cccc(O)c1O)c1ccccc1 [Myxochelin J2] | 2.39 |
| O=C(NCCCC[C@@H](CO)NC(=O)c1cccc(O)c1O)c1ccccc1O [Myxochelin J3] | 1.52 |
| O=C(N[C@H](CO)CCCCNC(=O)c1cccc(O)c1O)c1ccccc1O [Myxochelin J4] | 3.54 |
| O=C(NCCCC[C@@H](CO)NC(=O)c1ccccc1O)c1ccccc1O [Myxochelin J5] | 9.32 |
| O=C(N[C@H](CO)CCCCNC(=O)c1c(O)cccc1F)c1cccc(O)c1O [Myxochelin J6] | 1.44 |
| O=C(NCCCC[C@@H](CO)NC(=O)c1c(O)cccc1F)c1cccc(O)c1O [Myxochelin J7] | 1.18 |
| O=C(NCCCC[C@@H](CO)NC(=O)c1c(O)cccc1F)c1c(O)cccc1F [Myxochelin J8] | 3.6 |

The remaining lines, values ahead:

| IC50 [µM] | SMILES |
| --- | --- |
| 8.4 | O=C(NCCCC[C@@H](CO)NC(=O)c1cccc(O)c1O)c1ccccc1F [Myxochelin J9] |
| 8.09 | O=C(N[C@H](CO)CCCCNC(=O)c1cccc(O)c1O)c1ccccc1F [Myxochelin J10] |
| > 10 | O=C(NCCCC[C@@H](CO)NC(=O)c1ccccc1F)c1ccccc1F [Myxochelin J11] |
| > 10 | O=C(NCCCC[C@@H](CO)NC(=O)c1cccc(F)c1)c1cccc(F)c1 [Myxochelin J12] |
| 4.6 | O=C(NCCCC[C@@H](CO)NC(=O)c1cccc(O)c1O)c1ccccc1Cl [Myxochelin J13] |
| 3.64 | O=C(N[C@H](CO)CCCCNC(=O)c1cccc(O)c1O)c1ccccc1Cl [Myxochelin J14] |
